# Experimental data from patent publication US20240173273A1 (priority 2021, published 2024).
# Key:
# Format in all cases: cell-based
# SARS-COV-2 [1] = assay: microbe, parasite or virus in culture
# SARS-COV-2 [2] = test system: SARS-COV-2
# [3] = test system: inflammatory response induced by SARS-COV-2; assay: Inflammatory and immune-sensing gene expression in infected Calu-3a cells; conditions: data not shown
# SARS-COV-2 [4] = test system: SARS-COV-2; remark: listed apart in the source
# [5] = test system: HECT E3 ligases, ACE2, TMPRSS2; assay: Expression of HECT E3 ligases, ACE2 and TMPRSS2 in Vero E6 and Calu-3a cells (RT-qPCR)
structure (smiles),measurement,setting,value
"CC(C)(CO)[C@@H](O)C(=O)NCCC(=O)NCCSSCCNC(=O)CCNC(=O)[C@H](O)C(C)(C)CO [pantethine, (2R,2′ R)—N,N′-(3,12-Dioxo-7,8-dithia-4,11-diazatetradecane-1,14-diyl)bis(2,4-dihydroxy-3,3-dimethylbutanamide)]",infection of Vero E6 cells by SARS-COV-2,SARS-COV-2 [1],reduced significantly and dose dependently
same,inhibition at 100 µM,"SARS-COV-2 [1]; Severe acute respiratory syndrome coronavirus 2, Vero C1008, 72 h, 100 μM, read-out: inhibition of the replication of SARS-COV-2 (Spike protein staining)",~76%
same,inhibition at 1000 µM,"SARS-COV-2 [1]; Severe acute respiratory syndrome coronavirus 2, Vero C1008, 72 h, 1000 μM, read-out: inhibition of the replication of SARS-COV-2 (Spike protein staining)",~98%
same,expression of the viral Spike and Nucleocapsid proteins within infected cells,SARS-COV-2 [2],reduce significantly
same,inflammatory response induced by SARS-COV-2,[3],reduced
same,infection of Calu-3a cells by SARS-COV-2,SARS-COV-2 [4],reduced significantly and dose dependently
same,ACE2 and TMPRSS2 expression,[5],no significant effect
same,HECT E3 ligases expression,[5],no effects
same,infection-induced increase of TMPRSS2 expression,[5],inhibited
same,HECT E3 ligase-increase induced by SARS-CoV-2 infection,"[5]; infected cells in vitro, data not shown",decreased
